{
  "source": "patent US12545677B2",
  "about": "“Compounds useful as factor XIa inhibitors” (JANSSEN PHARMACEUTICA NV, priority 2020, dated 2026)",
  "key": {"HepG2 cells": {"tested_on": "HepG2 cells", "assay": "Cell viability, Cell Titer Fluor Assay, parallel to Seahorse assay", "type": "cell-based", "conditions": "Homo sapiens, 1 h, one-hour incubation, read-out: IC50, cellular viability", "method": "The purpose of this assay was to investigate the effect of the compound of formula (I-A) on mitochondrial respiration in HepG2 cells using the Agilent Seahorse XFe96 analyzer. Cell viability was also determined in HepG2 cells in parallel to the Seahorse assay.\nCell viability measurements: HepG2 cells were seeded onto black-walled 96 well plates at a density of 40,000 cells/well in EMEM containing 10% HI FBS and 1× Pen/Strep and allowed to attach overnight. The next day, test compounds were prepared and diluted in EMEM. Following a one-hour incubation with the test article(s), cell viability was assessed using the Cell Titer Fluor Assay (Promega, Cat no. G6081) according to the manufacturer's protocol. The viability assay monitors activity of […], a ubiquitous protease found in live cells.\nData Analyses: Mitochondrial SRC (spare respiratory capacity) was calculated by subtracting the rate of the basal respiration from the rate of the maximal respiration. SRC values were automatically generated by the Report Generator (Agilent Technologies-version 4.0). All experiments were run in triplicate and the mean and standard deviations were calculated for each test concentration. All data were normalized to vehicle controls.\nIC50 values were determined by nonlinear regression and fitting of the dose response curves to a […] equation with variable slope (Hill coefficient): […]"}, "HERG current": {"target": "T1, HERG current (Homo sapiens, UniProt Q12809)", "T1 construct": "expressed in transfected cells; host or cells: HEK293", "T1 sequence (Q12809 whole entry)": "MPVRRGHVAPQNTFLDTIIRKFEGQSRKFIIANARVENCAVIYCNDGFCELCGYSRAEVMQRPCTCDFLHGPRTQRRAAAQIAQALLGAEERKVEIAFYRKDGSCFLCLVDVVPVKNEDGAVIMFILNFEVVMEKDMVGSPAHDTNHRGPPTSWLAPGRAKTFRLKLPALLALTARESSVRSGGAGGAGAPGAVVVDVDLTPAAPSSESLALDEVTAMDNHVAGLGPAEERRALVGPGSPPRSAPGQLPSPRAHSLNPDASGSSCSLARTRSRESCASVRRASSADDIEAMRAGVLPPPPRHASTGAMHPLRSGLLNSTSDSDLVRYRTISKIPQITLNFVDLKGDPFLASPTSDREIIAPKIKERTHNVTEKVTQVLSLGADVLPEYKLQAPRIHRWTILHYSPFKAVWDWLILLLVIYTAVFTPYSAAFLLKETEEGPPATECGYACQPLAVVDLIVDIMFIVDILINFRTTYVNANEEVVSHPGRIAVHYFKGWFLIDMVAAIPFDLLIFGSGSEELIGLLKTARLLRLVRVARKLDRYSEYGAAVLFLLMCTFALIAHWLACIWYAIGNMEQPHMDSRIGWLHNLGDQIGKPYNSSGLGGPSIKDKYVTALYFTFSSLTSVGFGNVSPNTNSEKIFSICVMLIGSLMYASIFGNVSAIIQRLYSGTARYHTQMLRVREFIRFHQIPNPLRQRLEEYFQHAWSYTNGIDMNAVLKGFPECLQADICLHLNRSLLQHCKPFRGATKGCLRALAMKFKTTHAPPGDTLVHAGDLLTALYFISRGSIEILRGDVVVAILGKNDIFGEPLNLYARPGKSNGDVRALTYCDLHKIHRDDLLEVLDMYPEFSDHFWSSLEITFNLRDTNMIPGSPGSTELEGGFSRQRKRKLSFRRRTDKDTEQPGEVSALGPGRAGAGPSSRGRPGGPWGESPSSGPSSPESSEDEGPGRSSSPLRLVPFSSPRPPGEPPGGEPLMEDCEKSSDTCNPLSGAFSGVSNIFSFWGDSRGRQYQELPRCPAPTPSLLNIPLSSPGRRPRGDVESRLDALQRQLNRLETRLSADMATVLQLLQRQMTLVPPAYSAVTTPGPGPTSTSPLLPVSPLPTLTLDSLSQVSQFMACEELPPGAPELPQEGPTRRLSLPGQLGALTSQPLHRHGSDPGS", "assay": "hERG assay, whole-cell voltage clamp in HEK293 cells", "type": "cell-based", "conditions": "HEK293 with stable transfection of HERG, 5 minutes of drug application", "source_text": "Biological Example 6: hERG Assay\nHERG (human ether-à-go-go-related gene) encodes a potassium channel with biophysical properties similar to the rapidly activating delayed-rectifier K^+ current (IKr) in cardiac myocytes. This IKr current contributes to the K^+ current responsible for the repolarization phase of the cardiac action potential. Blockage of this current may prolong action potential duration and cause long QT-syndrome. The development of QT prolongation can lead to the occurrence of ventricular arrhythmias such as Torsades de Pointes, which can result in sudden death. […]\nElectrophysiological measurements: The membrane current of the cells was measured at distinct membrane potentials with the patch clamp technique by means of an EPC-9 patch clamp amplifier. […] The HERG current (K+-selective outward current) was determined as the maximal tail current at −40 mV after a 2 second depolarization to +60 mV. […] Thereafter test pulses were given for 5 minutes to quantify the HERG current in control conditions. […] The effect of the test compound was measured after 5 minutes of drug application. […]\nMeasurements: The HERG current was determined as the maximal tail current at −40 mV after a 2 second depolarization to +60 mV, starting from a holding potential of −80 mV. […]"}},
  "data": [
    {"compound": "O=C1C=C(c2c(-n3cnnn3)ccc(Cl)c2F)C[C@H]2CC[C@@H](c3ncc(-c4ccnc(CO)c4F)[nH]3)N12", "note": "[Compound of formula (I-A), (3S,8aR)-7-(3-Chloro-2-fluoro-6-(1H-tetrazol-1-yl)phenyl)-3-(5-(3-fluoro-2-(hydroxymethyl)pyridin-4-yl)-1H-imidazol-2-yl)-2,3,8,8a-tetrahydroindolizin-5(1H)-one]", "values": [
      {"measurement": "IC50", "setting": "HepG2 cells", "value": "> 100", "unit": "µM"},
      {"measurement": "IC50", "setting": "HERG current", "value": "> 30", "unit": "µM"}
    ]}
  ]
}
